From article PMC4302236, “Functional profile of a novel modulator of serotonin, dopamine, and glutamate neurotransmission” (Psychopharmacology, 2014)
Like-named read-outs stand apart in the source and are kept apart here.

How the values were obtained:
social defeat model = assay: Social interaction behavior after repeated social defeat; format: in vivo; conditions: mice, 1 mg/kg i.p. once daily 28 days after 10 days defeat; 150 s test
Method: Mice were tested for social isolation behavior after repeated exposure (for 10 days) to an aggressive resident mouse in the social defeat paradigm as described by [Berton et al. (2006)]. […] On the day after the last drug or vehicle treatment, the mice were placed in an open field in the presence of a resident mouse (within a smaller cage) and the animal’s behavior recorded by videotape for 150 s. Videotracking software (Noldus, Netherlands) was used to calculate the total time each mouse spent in specified open-field quadrants, defined schematically in Fig. 8. The total time (s) spent by mice representing each drug treatment group in the interaction zone (Fig. 8) in proximity to the resident mouse or, in the corner zones, at a distance from the resident mouse (Fig. 8) was expressed as a mean (±SEM).

[1] = molecular target: T1, human recombinant D2-short receptor (Homo sapiens, UniProt P14416); assay: Blockade of dopamine-induced inhibition of forskolin-stimulated cAMP accumulation in CHO cells; format: cell-based; conditions: forskolin 10 μM, read-out: IC50, blocking dopamine inhibition of forskolin-stimulated cAMP accumulation
T1 construct: expressed in transfected cells; host or cells: CHO

DOI-induced headtwitch = assay: Inhibition of DOI-induced headtwitch (in vivo 5-HT2A antagonism); conditions: mice, p.o., 30 min prior to DOI […] i.p.
Method: Inhibition of DOI-induced headtwitch was measured as a functional assay for the in vivo potency of the compound as an antagonist at 5-HT2A receptors. […] Headtwitches were then counted for 5 min, starting 10 min after DOI injection. An ID50 for inhibition of DOI-induced headtwitch was calculated using a four-parameter logistical fit (Excel Fit software, IDBS).

[2] = system: GluN2B phosphorylated at tyrosine (Y) 1472; assay: GluN2B Y1472 phosphorylation state in nucleus accumbens; format: in vivo; conditions: mice, 3 mg/kg p.o., 120 min after dosing
Method: Brains were rapidly removed from the skull. […] Brain tissue was prepared for SDS-PAGE as described above, and protein homogenates (15 μg) were separated on 3-7 % gradient gels, and proteins transferred to nitrocellulose membranes. Portions of each membrane were immunoblotted for GluN2B phosphorylated at […] (rabbit polyclonal) and total GluN2B (mouse monoclonal) (Thermo Fisher Scientific, Rockford, IL).

5-HT2A receptor = 5-HT2A receptor (Homo sapiens, UniProt P28223); assay: Serotonin-mediated phosphatidylinositol (PI) turnover in HEK293 cells; format: cell-based; conditions: right-shifting the serotonin dose–response curve
[3] = system: panel of 66 receptors, ion channels, and enzymes; assay: NovaScreen broad selectivity panel at 100 nM, whole panel; format: binding
[4] = system: serine 40 (S40)-phosphorylated tyrosine hydroxylase; assay: Striatal tyrosine hydroxylase S40 phosphorylation state (CNSProfile immunoblotting); format: in vivo; conditions: mice, acute; ITI-007 3 mg/kg p.o., clozapine 5 i.p., aripiprazole 10 p.o., olanzapine 1 i.p., risperidone 3 p.o., haloperidol 1 i.p.; over 60 min; vs vehicle
Method: The effect of the selected compounds on the phosphorylation state of tyrosine hydroxylase (TH) was measured and quantitated as an indicator of the potential of each compound to perturb presynaptic dopamine synthesis in striatum. […] This technique preserves in vivo levels of brain protein phosphorylation ([Zhu et al. 2010]). […] Small aliquots of the homogenate were retained for protein determination by the bicinchoninic acid (BCA) protein assay method (Pierce Chemical Co., Rockford, IL). […] Immunoblotting was carried out using a phos-phorylation state-specific polyclonal antibody raised against […] (S40)-phosphorylated tyrosine hydroxylase (Chemicon, Temecula, CA) and a pan-TH monoclonal antibody for measuring the total protein levels (BD Biosciences, San Jose, CA). […] Antibody binding was detected and quantitated using a LiCor Odyssey infrared fluorescent detection system. Phosphorylation at each site detected by phospho-specific antibodies was quantified, normalized to total levels of the protein (non-phosphorylated), and expressed as percent±SEM of the level of phosphorylation in vehicle-treated control mice (N=6).

Histamine H1 receptor = molecular target: T2, Histamine H1 receptor (Bos taurus, UniProt P30546); assay: Histamine H1 receptor binding in bovine cerebellum (3H-pyrilamine)
T2 construct: tissue NovaScreen/Caliper/Perkin-Elmer; host or cells: bovine cerebellum
Method: (§1) Binding activity at a variety of receptor targets, including recombinant human serotonin receptors and rat dopamine D2 and human recombinant dopamine D4 receptors, was measured in vitro using standard radioligand displacement methods (NovaScreen/Caliper/Perkin-Elmer, Hanover, MD), to determine affinity. […] D2 receptor binding was measured at rat recombinant receptors expressed in Chinese hamster ovary (CHO) cells and using ^3H-methylspiperone as a radioligand and in rat striatum using ^3H-sulpiride as a radioligand. […] D4 receptor binding was measured at human recombinant receptor s expressed in CHO cells and using ^3 H-methylspiperone as a radioligand. D1 receptor binding at human recombinant receptor was measured in CHO cells using ^3H-SCH23390 as a radioligand. 5-HT2C receptor binding was measured in pig choroid plexus using ^3 H-methylsergide as a radioligand. Binding to alpha adrenergic receptors in the rat frontal cortex (alpha1A) or rat liver (alpha1B) was measured using ^3H-prazosin as a radioligand. Histamine H1 receptor binding was measured in bovine cere- bellum using ^3H-pyrilamine as a radioligand. […] The affinity constant (Ki) for each receptor subtype or inhibitory concentration 50 (IC50) for inhibition in functional assays was calculated.

[5] = system: phospho-serine (S) 9 GSK-3β; conditions: mouse, in vivo; for Phospho-S9 GSK-3β, PFC / Phospho-S9 GSK-3β, accumbens / Phospho-S9 GSK-3β, striatum: po
Method: Each brain was rapidly removed from the skull. Nucleus accumbens, striatum, and prefrontal cortex were dissected free-hand, frozen in liquid nitrogen, and stored at −80 °C until analyzed for phosphoprotein levels. […] Levels of phospho-GSK-3β were normalized for total levels of GSK-3β and expressed as a percent of phosphoprotein levels in the vehicle-injected controls.

Adrenergic, 1β = system: T3, Adrenergic, 1β; assay: NovaScreen broad selectivity panel at 100 nM, Adrenergic 1β; conditions: average of replicate tubes, read-out: % Inhibition of binding at 100 nM concentration, Adrenergic 1β
T3 construct: tissue NovaScreen/Caliper/Perkin-Elmer; host or cells: rat liver (inferred)

Dopamine, D4 = molecular target: T4, Dopamine, D4 (Homo sapiens, UniProt P21917); assay: NovaScreen broad selectivity panel at 100 nM, Dopamine D4; conditions: average of replicate tubes, read-out: % Inhibition of binding at 100 nM concentration, Dopamine D4
T4 sequence (P21917 1-419): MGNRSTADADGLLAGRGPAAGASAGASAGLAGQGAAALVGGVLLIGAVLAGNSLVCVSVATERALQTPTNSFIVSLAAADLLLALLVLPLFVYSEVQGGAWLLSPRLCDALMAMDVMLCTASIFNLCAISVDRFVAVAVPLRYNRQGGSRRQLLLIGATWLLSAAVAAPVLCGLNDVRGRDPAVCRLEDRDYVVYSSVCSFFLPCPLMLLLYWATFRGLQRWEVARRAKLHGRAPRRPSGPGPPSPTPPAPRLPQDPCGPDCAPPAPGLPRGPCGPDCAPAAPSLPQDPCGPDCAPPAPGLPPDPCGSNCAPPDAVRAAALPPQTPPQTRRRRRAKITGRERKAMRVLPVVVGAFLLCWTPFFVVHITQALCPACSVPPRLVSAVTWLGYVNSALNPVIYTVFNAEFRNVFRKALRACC
Method: as §1

T2 sequence (P30546 whole entry): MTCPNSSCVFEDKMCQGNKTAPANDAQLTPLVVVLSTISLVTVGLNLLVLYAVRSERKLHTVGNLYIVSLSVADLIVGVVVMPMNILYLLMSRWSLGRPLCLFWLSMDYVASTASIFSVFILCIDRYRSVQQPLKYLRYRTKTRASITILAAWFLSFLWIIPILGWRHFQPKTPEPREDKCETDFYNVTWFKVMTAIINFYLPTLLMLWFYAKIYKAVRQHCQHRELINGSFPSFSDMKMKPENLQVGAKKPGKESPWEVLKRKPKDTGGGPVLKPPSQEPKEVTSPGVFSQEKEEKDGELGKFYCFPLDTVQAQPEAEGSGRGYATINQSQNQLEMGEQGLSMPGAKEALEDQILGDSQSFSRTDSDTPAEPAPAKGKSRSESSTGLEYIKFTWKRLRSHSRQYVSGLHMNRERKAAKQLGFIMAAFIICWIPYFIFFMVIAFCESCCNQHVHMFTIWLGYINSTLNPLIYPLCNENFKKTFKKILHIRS
Chain of 5-HT2A receptor (P28223 whole entry): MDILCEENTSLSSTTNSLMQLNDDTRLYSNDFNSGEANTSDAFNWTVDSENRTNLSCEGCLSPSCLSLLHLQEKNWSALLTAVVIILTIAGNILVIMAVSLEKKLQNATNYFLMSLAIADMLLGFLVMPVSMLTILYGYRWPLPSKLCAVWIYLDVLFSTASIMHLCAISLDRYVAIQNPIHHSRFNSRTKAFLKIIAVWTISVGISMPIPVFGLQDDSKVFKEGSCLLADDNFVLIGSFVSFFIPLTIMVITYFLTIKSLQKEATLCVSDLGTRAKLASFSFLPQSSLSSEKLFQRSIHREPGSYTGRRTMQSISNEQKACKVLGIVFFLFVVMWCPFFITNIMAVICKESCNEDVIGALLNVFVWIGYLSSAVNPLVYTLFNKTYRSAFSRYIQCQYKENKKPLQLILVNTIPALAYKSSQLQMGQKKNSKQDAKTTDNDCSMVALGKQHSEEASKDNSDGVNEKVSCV
T3 sequence (P15823 whole entry): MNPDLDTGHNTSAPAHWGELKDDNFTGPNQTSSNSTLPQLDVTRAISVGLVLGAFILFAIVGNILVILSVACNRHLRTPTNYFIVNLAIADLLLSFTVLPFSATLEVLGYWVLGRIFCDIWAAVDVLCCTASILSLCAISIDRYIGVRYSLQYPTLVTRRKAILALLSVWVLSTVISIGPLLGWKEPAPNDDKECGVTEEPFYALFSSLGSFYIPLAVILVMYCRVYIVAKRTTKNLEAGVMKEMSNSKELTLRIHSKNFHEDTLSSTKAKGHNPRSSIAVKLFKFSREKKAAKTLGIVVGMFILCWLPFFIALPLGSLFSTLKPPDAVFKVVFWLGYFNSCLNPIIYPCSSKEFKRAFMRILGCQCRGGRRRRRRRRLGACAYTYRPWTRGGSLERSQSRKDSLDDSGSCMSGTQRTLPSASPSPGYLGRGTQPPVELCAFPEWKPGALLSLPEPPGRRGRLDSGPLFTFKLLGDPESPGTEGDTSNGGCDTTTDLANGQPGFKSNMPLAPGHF
T1 sequence (P14416 1-414 isoform P14416-2): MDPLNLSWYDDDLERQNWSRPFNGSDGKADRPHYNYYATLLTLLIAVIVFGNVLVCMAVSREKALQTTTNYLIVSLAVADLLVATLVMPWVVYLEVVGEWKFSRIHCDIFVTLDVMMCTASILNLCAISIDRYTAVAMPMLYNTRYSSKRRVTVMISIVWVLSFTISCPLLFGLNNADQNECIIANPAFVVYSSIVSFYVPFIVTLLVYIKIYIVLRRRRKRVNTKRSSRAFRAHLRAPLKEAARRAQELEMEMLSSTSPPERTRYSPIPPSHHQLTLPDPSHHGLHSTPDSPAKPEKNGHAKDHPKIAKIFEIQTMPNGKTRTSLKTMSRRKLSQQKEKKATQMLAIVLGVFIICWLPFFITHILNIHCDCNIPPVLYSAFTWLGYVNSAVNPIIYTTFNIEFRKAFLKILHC

For `CN1CCN2c3c(cccc31)[C@@H]1CN(CCCC(=O)c3ccc(F)cc3)CC[C@@H]12` [ITI-007, 1-(4-fluoro-phenyl)-4-((6bR,10aS)-3-methyl-2,3,6b,9,10,10a-hexahydro-1H,7H-pyrido[3′,4′:4,5]pyrrolo[1,2,3-de]quinoxalin-8-yl)-butan-1-one], the “Time spent in interaction zone (social behavior) after chronic social defeat” value (social defeat model) was “no such reduction in social behavior”, the IC50 [1] was 0.338 µM and the “ID50, inhibition of DOI-induced headtwitch” value (DOI-induced headtwitch) was 0.09 mg/kg. For the same compound, the “GluN2B phosphorylation at Y1472 in nucleus accumbens” value [2] was 180±20 % of control, the “Effect on serotonin-mediated increases in phosphatidylinositol (PI) turnover” value (5-HT2A receptor) was “antagonize” and the “Binding to the other targets of the panel” value ([3]; 100 nM, custom panel of 66 receptors, ion channels, and enzymes) was “did not bind significantly”. The Ki ([3]; read-out: projected Ki values (>50 % binding inhibition), single concentration 100 nM, at the 5-HT2A, D1, D2, D4, alpha1A and alpha1B receptors, and at SERT) was no more than 0.1 µM, the “Effect on TH phosphorylation at S40 in striatum” value [4] was “no significant effect” and the “Binding to histamine H1 receptors” value (Histamine H1 receptor) was “no significant binding”. The Ki (Histamine H1 receptor; radioligand displacement, unit inferred) was greater than 1 µM, the “Effect on S9 GSK-3β phosphorylation in striatum at any dose tested” value [5] was “no significant effect” and the “Phospho-S9 GSK-3β, PFC” value ([5]; 3 mg/kg) was 103.4±3.1 % vehicle control. The “Phospho-S9 GSK-3β, accumbens” value ([5]; 3 mg/kg) was 122.9±8.6 % vehicle control, the “Phospho-S9 GSK-3β, striatum” value ([5]; 3 mg/kg) was 106.6±2.1 % vehicle control and the “Phospho-S9 GSK-3β, striatum” value ([5]; 10 mg/kg) was 98.2±5.1 % vehicle control. The “Phospho-S9 GSK-3β, PFC” value ([5]; 30 mg/kg) was 112.1±2.7 % vehicle control, the “Phospho-S9 GSK-3β, accumbens” value ([5]; 30 mg/kg) was 105.5±2.2 % vehicle control and the “Phospho-S9 GSK-3β, striatum” value ([5]; 30 mg/kg) was 108.0±2.9 % vehicle control. The inhibition at 0.1 µM (Adrenergic, 1β) was 85.4% and the inhibition at 0.1 µM (Dopamine, D4) was 64.3%.
